In brackets after ≈: the same amount, converted by molar mass.
How the values were obtained:
Assay in all cases: Antibacterial assay, microtitration MIC (Test A)
Type in all cases: cell-based
E. faecalis MGH-2 = details: strain MGH-2; for MIC: Enterococcus faecalis, MGH2, Gram Positive Bacteria, read-out: Minimum Inhibitory Concentrations E. faecalis MGH-2; for Minimum Inhibitory Concentrations E. faecalis MGH-2: Gram Positive Bacteria
Outline: (§1)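 Minimum inhibitory concentrations were determined by standard microtitration techniques against the listed Gram-negative and Gram-positive bacterial strains.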

S pyogenes C203 = details: Gram Positive Bacteria, strain C203; for MIC: read-out: Minimum Inhibitory Concentrations S pyogenes C203
Outline: as §1

S. aureus UC-76 = details: strain UC-76; for MIC: Staphylococcus aureus, UC76, Gram Positive Bacteria, read-out: Minimum Inhibitory Concentrations S. aureus UC-76
Outline: as §1

S. pneumo SV-1 = details: Gram Positive Bacteria, strain SV-1; for MIC: read-out: Minimum Inhibitory Concentrations S. pneumo SV-1
Outline: as §1

Row | SMILES | MIC (E. faecalis MGH-2) [µg/mL] | MIC (S pyogenes C203) [µg/mL] | MIC (S. aureus UC-76) [µg/mL] | MIC (S. pneumo SV-1) [µg/mL] | Minimum Inhibitory Concentrations E. faecalis MGH-2 (E. faecalis MGH-2) [µg/mL] | Minimum Inhibitory Concentrations S pyogenes C203 (S pyogenes C203) [µg/mL] | Minimum Inhibitory Concentrations S. aureus UC-76 (S. aureus UC-76; Gram Positive Bacteria) [µg/mL] | Minimum Inhibitory Concentrations S. pneumo SV-1 (S. pneumo SV-1) [µg/mL]
1 | COCC(O)C1CCN(c2c(F)cc3c(=O)c(C(=O)O)cn(C4CC4)c3c2C)C1 (stereo not shown) [drawing 370] | 1 (≈ 2.47 µM) | 1 (≈ 2.47 µM) | 0.06 (≈ 0.148 µM) | 0.5 (≈ 1.24 µM) | – | – | – | –
2 | Nc1nc(-n2cc(C(=O)O)c(=O)c3cc(F)c(N4C[C@@H](CO)[C@@H](CO)C4)c(Cl)c32)c(F)cc1F [drawing 402] | 2 (≈ 4.01 µM) | 0.5 (≈ 1 µM) | 0.125 (≈ 0.251 µM) | 0.5 (≈ 1 µM) | – | – | – | –
3 | COCCOCC(O)C1CN(c2c(F)cc3c(=O)c(C(=O)O)cn(C4CC4)c3c2C)CC1(C)C (stereo not shown) [drawing 433] | 0.5 (≈ 1.05 µM) | 1 (≈ 2.1 µM) | 0.03 (≈ 0.063 µM) | 1 (≈ 2.1 µM) | – | – | – | –
4 | COC[C@@H]1CN(c2c(F)cc3c(=O)c(C(=O)O)cn(C4CC4)c3c2C)C[C@@H]1COC [drawing 407] | 0.5 (≈ 1.19 µM) | 0.25 (≈ 0.597 µM) | 0.03 (≈ 0.0717 µM) | 0.25 (≈ 0.597 µM) | – | – | – | –
5 | COc1c(N2C[C@@H](CO)[C@@H](CO)C2)c(F)c(N)c2c(=O)c(C(=O)O)cn(C3CC3)c12 [drawing 400] | 0.25 (≈ 0.593 µM) | 0.25 (≈ 0.593 µM) | 0.008 (≈ 0.019 µM) | 0.125 (≈ 0.297 µM) | – | – | – | –
6 | COCC(O)C1CN(c2c(F)cc3c(=O)c(C(=O)O)cn(C4CC4)c3c2C)CC1(C)C (stereo not shown) [drawing 435] | 0.25 (≈ 0.578 µM) | 0.5 (≈ 1.16 µM) | 0.015 (≈ 0.0347 µM) | 0.25 (≈ 0.578 µM) | – | – | – | –
7 | COc1c(N2CCC(C3(O)CC3)C2)c(F)cc2c(=O)c(C(=O)O)cn(C3CC3)c12 (stereo not shown) [drawing 360] | 0.125 (≈ 0.311 µM) | 0.25 (≈ 0.621 µM) | 0.015 (≈ 0.0373 µM) | 0.125 (≈ 0.311 µM) | – | – | – | –
8 | Cc1c(N2CC(C)(CO)C(C)(CO)C2)c(F)cc2c(=O)c(C(=O)O)cn(C3CC3)c12 (stereo not shown) [drawing 439] | – | – | – | – | 0.25 | 0.25 | 0.15 | 0.25
9 | O=C(O)c1cn(C2CC2)c2c(OC(F)F)c(N3CC4CC(O)C(O)C4C3)c(F)cc2c1=O (stereo not shown) [drawing 459] | 0.25 (≈ 0.55 µM) | 0.5 (≈ 1.1 µM) | 0.008 (≈ 0.0176 µM) | 0.25 (≈ 0.55 µM) | – | – | – | –
10 | COc1c(N2C[C@]3(CO)CCC[C@]3(CO)C2)c(F)cc2c(=O)c(C(=O)O)cn(C3CC3)c12 [drawing 462] | 0.5 (≈ 1.12 µM) | 1 (≈ 2.24 µM) | 0.15 (≈ 0.336 µM) | 0.25 (≈ 0.56 µM) | – | – | – | –
11 | Cc1c(N2CCC(C(O)C(F)(F)F)C2)c(F)cc2c(=O)c(C(=O)O)cn(C3CC3)c12 (stereo not shown) [drawing 363] | – | 0.5 (≈ 1.17 µM) | 0.0015 (≈ 0.0035 µM) | 0.25 (≈ 0.584 µM) | 0.25 | – | – | –
12 | Nc1nc(-n2cc(C(=O)O)c(=O)c3cc(F)c(N4C[C@@H](O)[C@@H](O)C4)nc32)c(F)cc1F [drawing 399] | 0.5 (≈ 1.14 µM) | 0.25 (≈ 0.572 µM) | 0.125 (≈ 0.286 µM) | 0.5 (≈ 1.14 µM) | – | – | – | –

More lines, in order of falling MIC (S pyogenes C203), values ahead:

Row | MIC (E. faecalis MGH-2) [µg/mL] | MIC (S pyogenes C203) [µg/mL] | MIC (S. aureus UC-76) [µg/mL] | MIC (S. pneumo SV-1) [µg/mL] | SMILES | Minimum Inhibitory Concentrations E. faecalis MGH-2 (E. faecalis MGH-2) [µg/mL] | Minimum Inhibitory Concentrations S pyogenes C203 (S pyogenes C203) [µg/mL] | Minimum Inhibitory Concentrations S. aureus UC-76 (S. aureus UC-76; Gram Positive Bacteria) [µg/mL] | Minimum Inhibitory Concentrations S. pneumo SV-1 (S. pneumo SV-1) [µg/mL]
13 | 0.125 (≈ 0.299 µM) | 0.125 (≈ 0.299 µM) | 0.008 (≈ 0.0191 µM) | 0.125 (≈ 0.299 µM) | Cc1c(N2CC(C(O)CO)C(C)(C)C2)c(F)cc2c(=O)c(C(=O)O)cn(C3CC3)c12 (stereo not shown) [drawing 434] | – | – | – | –
14 | 0.125 (≈ 0.299 µM) | 0.125 (≈ 0.299 µM) | 0.004 (≈ 0.00956 µM) | 0.06 (≈ 0.143 µM) | CCOC[C@@H]1CN(c2c(F)cc3c(=O)c(C(=O)O)cn(C4CC4)c3c2C)C[C@@H]1CO [drawing 409] | – | – | – | –
15 | 0.125 (≈ 0.29 µM) | 0.125 (≈ 0.29 µM) | 0.004 (≈ 0.00929 µM) | 0.06 (≈ 0.139 µM) | Cc1c(N2CC3(CO)CCCC3(CO)C2)c(F)cc2c(=O)c(C(=O)O)cn(C3CC3)c12 (stereo not shown) [drawing 463] | – | – | – | –
16 | 0.125 (≈ 0.3 µM) | 0.125 (≈ 0.3 µM) | 0.008 (≈ 0.0192 µM) | 0.125 (≈ 0.3 µM) | Cc1c(N2CC(C(O)CO)C3(CC3)C2)c(F)cc2c(=O)c(C(=O)O)cn(C3CC3)c12 (stereo not shown) [drawing 431] | – | – | – | –
17 | 0.125 (≈ 0.309 µM) | 0.06 (≈ 0.148 µM) | 0.004 (≈ 0.00989 µM) | 0.03 (≈ 0.0742 µM) | COC[C@H]1CN(c2c(F)cc3c(=O)c(C(=O)O)cn(C4CC4)c3c2C)C[C@H]1CO [drawing 406] | – | – | – | –
18 | 0.06 (≈ 0.159 µM) | 0.06 (≈ 0.159 µM) | 0.00403 (≈ 0.0107 µM) | 0.06 (≈ 0.159 µM) | COc1c(N2CCC(CO)C2)c(F)cc2c(=O)c(C(=O)O)cn(C3CC3)c12 (stereo not shown) [drawing 342] | – | – | – | –
19 | 0.06 (≈ 0.143 µM) | 0.03 (≈ 0.0717 µM) | 0.002 (≈ 0.00478 µM) | 0.03 (≈ 0.0717 µM) | Cc1c(N2C[C@@H](CCO)[C@@H](CCO)C2)c(F)cc2c(=O)c(C(=O)O)cn(C3CC3)c12 [drawing 414] | – | – | – | –

Reference: patent US20050107423A1, “Quinolone antibacterial agents” (priority 2003, published 2005)
